Assay results: patent US20080242661A1, “Novel compounds useful for the treatment of degenerative & inflammatory diseases” (priority 2006, published 2008)

Target: purified PDE1A enzyme (Homo sapiens, UniProt P54750)
Experiment: In vitro PDE1A assay, dose response (Biomol Cyclic Nucleotide Phosphodiesterase Assay Kit, colorimetric)
Type: biochemical
Conditions: 100 μM cAMP, 45 min at 37° C., 8 points from 20 μM, duplicate
Source text: For the dose response and further screening, we used the Cyclic Nucleotide Phosphodiesterase Assay Kit from Biomol, a colorimetric, non-radioactive assay. The basis for the assay is the cleavage of cAMP by PDE1A. The 5′AMP is further cleaved into the nucleoside and phosphate by the enzyme 5′-nucleotidase (catnr KI-307). The phosphate released due to enzymatic cleavage is quantified using BIOMOL GREEN™ reagent (catnr AK-111) in a modified Malachite Green assay 1,2. A PDE1A inhibitor will result in a decrease of the signal.
For the enzymatic reaction a mix of 25 μL with purified PDE1A enzyme, 100 μM cAMP, 5′Nucleotidase and the compound is made in a clear 384-plate. The reaction buffer is Tris 20 mM pH 7.4, 4 μg/ml calmodulin, 3 mM MgCl2, 1.5 mM CaCl2, 0.2 mg/mL BSA and 0.001% Brij-35. After an incubation of 45 minutes at 37° C., the reaction is stopped by the addition of 50 μL BIOMOL GREEN™ reagent. After 30 minutes incubation at room temperature, the readout is performed on the Envision (absorption at 615 nm).
All compounds are tested in duplicate starting from 20 μM followed by a ⅓ serial dilution, 8 points (20 μM-6.67 μM-2.22 μM-740 nM-247 nM-82 nM-27 nM-9 nM) in a final concentration of 1% DMSO. As the positive dose response control compound Vardenafil is used. For the calculation of z′ and PIN values 10 μM Vardenafil is used as positive control (100% inhibition) and 1% DMSO as negative control (0% inhibition).
The following compounds have been or can be prepared according to the synthetic methods described above. For the purpose of Table 2 below, activity of each compound, which can be determined using the PDE1A assay method described in above, is expressed as follows: […]

Row | SMILES | IC50 [nM]
1 | CCCc1nn(C)c2c(=O)[nH]c(N(C)Cc3ccc(-c4ccccn4)cc3)nc12 [Example 44, 1-methyl-5-(methyl(4-(pyridin-2-yl)benzyl)amino)-3-propyl-1H-pyrazolo[4,3-d]pyrimidin-7(6H)-one] | 101 to 500
2 | CCCc1nn(C)c2c(=O)[nH]c(N(CCC(C)C)Cc3ccc(Cl)c(Cl)c3)nc12 [Example 45, 5-((3,4-dichlorobenzyl)(isopentyl)amino)-1-methyl-3-propyl-1H-pyrazolo[4,3-d]pyrimidin-7(6H)-one] | < 100
3 | CCCCN(Cc1ccc(Cl)c(Cl)c1)c1nc2c(CCC)nn(C)c2c(=O)[nH]1 [Example 46, 5-(butyl(3,4-dichlorobenzyl)amino)-1-methyl-3-propyl-1H-pyrazolo[4,3-d]pyrimidin-7(6H)-one] | 101 to 500
4 | CCCc1nn(C)c2c(=O)[nH]c(N(C)Cc3sc(-c4ccccc4)nc3C)nc12 [Example 47, 1-methyl-5-(methyl((4-methyl-2-phenylthiazol-5-yl)methyl)amino)-3-propyl-1H-pyrazolo[4,3-d]pyrimidin-7(6H)-one] | < 100
5 | CCCc1nn(C)c2c(=O)[nH]c(N(C)Cc3cccc(OCCN4CCOCC4)c3)nc12 [Example 48, 1-methyl-5-(methyl(3-(2-morpholinoethoxy)benzyl)amino)-3-propyl-1H-pyrazolo[4,3-d]pyrimidin-7(6H)-one] | > 500
6 | CCCc1nn(C)c2c(=O)[nH]c(N(C)Cc3ccc(OCCN4CCOCC4)cc3)nc12 [Example 49, 1-methyl-5-(methyl(4-(2-morpholinoethoxy)benzyl)amino)-3-propyl-1H-pyrazolo[4,3-d]pyrimidin-7(6H)-one] | 101 to 500
7 | CCCc1nn(C)c2c(=O)[nH]c(NCc3ccccc3OCCN3CCOCC3)nc12 [Example 50, 1-methyl-5-(2-(2-morpholinoethoxy)benzylamino)-3-propyl-1H-pyrazolo[4,3-d]pyrimidin-7(6H)-one] | > 500
8 | CCCc1nn(C)c2c(=O)[nH]c(NCc3c(-c4ccccc4)noc3C)nc12 [Example 51, 1-methyl-5-((5-methyl-3-phenylisoxazol-4-yl)methylamino)-3-propyl-1H-pyrazolo[4,3-d]pyrimidin-7(6H)-one] | 101 to 500
9 | CCCc1nn(C)c2c(=O)[nH]c(NCc3nn(-c4ccccc4)nc3C)nc12 [Example 52, 1-methyl-5-((5-methyl-2-phenyl-2H-1,2,3-triazol-4-yl)methylamino)-3-propyl-1H-pyrazolo[4,3-d]pyrimidin-7(6H)-one] | < 100
10 | CCCc1nn(C)c2c(=O)[nH]c(NCc3cccc(CN4CCOCC4)c3)nc12 [Example 53, 1-methyl-5-(3-(morpholinomethyl)benzylamino)-3-propyl-1H-pyrazolo[4,3-d]pyrimidin-7(6H)-one] | > 500
11 | CCCc1nn(C)c2c(=O)[nH]c(NCc3ccnc(N4CCOCC4)c3)nc12 [Example 54, 1-methyl-5-((2-morpholinopyridin-4-yl)methylamino)-3-propyl-1H-pyrazolo[4,3-d]pyrimidin-7(6H)-one] | 101 to 500
12 | CCCc1nn(C)c2c(=O)[nH]c(NCc3cccc(OCCN4CCOCC4)c3)nc12 [Example 55, 1-methyl-5-(3-(2-morpholinoethoxy)benzylamino)-3-propyl-1H-pyrazolo[4,3-d]pyrimidin-7(6H)-one] | 101 to 500
13 | CCCc1nn(C)c2c(=O)[nH]c(NCc3cccc(N4CCOCC4)c3)nc12 [Example 56, 1-methyl-5-(3-morpholinobenzylamino)-3-propyl-1H-pyrazolo[4,3-d]pyrimidin-7(6H)-one] | 101 to 500
14 | CCCc1nn(C)c2c(=O)[nH]c(NCc3ccn(-c4ccccc4)n3)nc12 [Example 57, 1-methyl-5-((1-phenyl-1H-pyrazol-3-yl)methylamino)-3-propyl-1H-pyrazolo[4,3-d]pyrimidin-7(6H)-one] | 101 to 500
15 | CCCc1nn(C)c2c(=O)[nH]c(N(C)Cc3cccc4ccccc34)nc12 [Example 58, 1-methyl-5-(methyl(naphthalen-1-ylmethyl)amino)-3-propyl-1H-pyrazolo[4,3-d]pyrimidin-7(6H)-one] | > 500
16 | CCCc1nn(C)c2c(=O)[nH]c(N3CCN(C(=O)C(c4ccccc4)c4ccccc4)CC3)nc12 [Example 59, 5-(4-(2,2-diphenylacetoyl)piperazin-1-yl)-1-methyl-3-propyl-1H-pyrazolo[4,3-d]pyrimidin-7(6H)-one] | > 500
17 | CCCc1nn(C)c2c(=O)[nH]c(N3CCC(C(F)(F)F)CC3)nc12 [Example 60, 1-methyl-3-propyl-5-(4-(trifluoromethyl)piperidin-1-yl)-1H-pyrazolo[4,3-d]pyrimidin-7(6H)-one] | > 500
18 | CCCc1nn(C)c2c(=O)[nH]c(N(C)Cc3ccc(N4CCOCC4)cc3)nc12 [Example 61, 1-methyl-5-(methyl(4-morpholinobenzyl)amino)-3-propyl-1H-pyrazolo[4,3-d]pyrimidin-7(6H)-one] | 101 to 500

Row | SMILES | IC50 [nM]
19 | CCCc1nn(C)c2c(=O)[nH]c(NCc3ccc4c(c3)CCO4)nc12 [Example 62, 5-((2,3-dihydrobenzofuran-5-yl)methylamino)-1-methyl-3-propyl-1H-pyrazolo[4,3-d]pyrimidin-7(6H)-one] | 101 to 500
20 | CCCc1nn(C)c2c(=O)[nH]c(NCc3cccc(-n4cccn4)c3)nc12 [Example 63] | 101 to 500
21 | CCCc1nn(C)c2c(=O)[nH]c(NCc3cccc(-n4cccc4)c3)nc12 [Example 64] | 101 to 500
22 | CCCc1nn(C)c2c(=O)[nH]c(N(C)Cc3cccc(-c4csc(C)n4)c3)nc12 [Example 65, 1-methyl-5-(methyl(3-(2-methylthiazol-4-yl)benzyl)amino)-3-propyl-1H-pyrazolo[4,3-d]pyrimidin-7(6H)-one] | 101 to 500
23 | CCCc1nn(C)c2c(=O)[nH]c(NCc3cc(-c4ccccc4)nn3C)nc12 [Example 66, 1-methyl-5-((1-methyl-3-phenyl-1H-pyrazol-5-yl)methylamino)-3-propyl-1H-pyrazolo[4,3-d]pyrimidin-7(6H)-one] | < 100
24 | CCCc1nn(C)c2c(=O)[nH]c(NCc3cccc(-c4ccn(C)n4)c3)nc12 [Example 67] | < 100
25 | CCCc1nn(C)c2c(=O)[nH]c(NCc3ccc4c(ccn4C)c3)nc12 [Example 68, 1-methyl-5-((1-methyl-1H-indol-5-yl)methylamino)-3-propyl-1H-pyrazolo[4,3-d]pyrimidin-7(6H)-one] | 101 to 500
26 | CCCc1nn(C)c2c(=O)[nH]c(NCc3ccc4ccn(C)c4c3)nc12 [Example 69, 1-methyl-5-((1-methyl-1H-indol-6-yl)methylamino)-3-propyl-1H-pyrazolo[4,3-d]pyrimidin-7(6H)-one] | 101 to 500
27 | CN(Cc1ccc(F)cc1)c1nc2c(C3CCCC3)nn(C)c2c(=O)[nH]1 [Example 70, 3-cyclopentyl-5-((4-fluorobenzyl)(methyl)amino)-1-methyl-1H-pyrazolo[4,3-d]pyrimidin-7(6H)-one] | < 100
28 | CN(Cc1ccc(Cl)cc1)c1nc2c(C3CCCC3)nn(C)c2c(=O)[nH]1 [Example 71, 5-((4-chlorobenzyl)(methyl)amino)-3-cyclopentyl-1-methyl-1H-pyrazolo[4,3-d]pyrimidin-7(6H)-one] | < 100
29 | CCCc1nn(C)c2c(=O)[nH]c(NCc3sc(-c4ccccc4)nc3C)nc12 [Example 72, 1-methyl-5-((4-methyl-2-phenylthiazol-5-yl)methylamino)-3-propyl-1H-pyrazolo[4,3-d]pyrimidin-7(6H)-one] | < 100
30 | CCCc1nn(C)c2c(=O)[nH]c(NCc3cccc(-n4cncn4)c3)nc12 [Example 73] | 101 to 500
31 | CCCc1nn(C)c2c(=O)[nH]c(N(Cc3cccc(N4CCOCC4)c3)CC(C)C)nc12 [Example 74, 5-(isobutyl(3-morpholinobenzyl)amino)-1-methyl-3-propyl-1H-pyrazolo[4,3-d]pyrimidin-7(6H)-one] | < 100
32 | CCCc1nn(C)c2c(=O)[nH]c(N(CCC)CCc3ccc(Cl)cc3)nc12 [Example 75, 5-((4-chlorophenethyl)(propyl)amino)-1-methyl-3-propyl-1H-pyrazolo[4,3-d]pyrimidin-7(6H)-one] | 101 to 500
33 | Cn1nc(C2CCCC2)c2nc(NCc3ccc(Cl)c(Cl)c3)[nH]c(=O)c21 [Example 76, 3-cyclopentyl-5-(3,4-dichlorobenzylamino)-1-methyl-1H-pyrazolo[4,3-d]pyrimidin-7(6H)-one] | 101 to 500
34 | CN(Cc1ccc(Cl)c(Cl)c1)c1nc2c(C3CCCC3)nn(C)c2c(=O)[nH]1 [Example 77, 3-cyclopentyl-5-((3,4-dichlorobenzyl)(methyl)amino)-1-methyl-1H-pyrazolo[4,3-d]pyrimidin-7(6H)-one] | < 100
35 | CCCN(CCC)c1nc2c(C3CCCC3)nn(C)c2c(=O)[nH]1 [Example 78, 3-cyclopentyl-5-(dipropylamino)-1-methyl-1H-pyrazolo[4,3-d]pyrimidin-7(6H)-one] | < 100
36 | CCCc1nn(C)c2c(=O)[nH]c(NCCc3ccc(Cl)cc3)nc12 [Example 79, 5-(4-chlorophenethylamino)-1-methyl-3-propyl-1H-pyrazolo[4,3-d]pyrimidin-7(6H)-one] | 101 to 500
